In paper PMC2866134 (Bioorganic & medicinal chemistry letters, 2010):

Assays:
PDGFR-β = PDGFR-β (Homo sapiens, UniProt P09619); experiment: PDGFR-β inhibition, whole cell phosphotyrosine ELISA cytoblot; type: cell-based; conditions: whole cell assay
VEGFR-1 = VEGFR-1 (Homo sapiens, UniProt P17948); experiment: VEGFR-1 inhibition, whole cell phosphotyrosine ELISA cytoblot; type: cell-based; conditions: whole cell assay
Sequence of VEGFR-1 (P17948 27-1338): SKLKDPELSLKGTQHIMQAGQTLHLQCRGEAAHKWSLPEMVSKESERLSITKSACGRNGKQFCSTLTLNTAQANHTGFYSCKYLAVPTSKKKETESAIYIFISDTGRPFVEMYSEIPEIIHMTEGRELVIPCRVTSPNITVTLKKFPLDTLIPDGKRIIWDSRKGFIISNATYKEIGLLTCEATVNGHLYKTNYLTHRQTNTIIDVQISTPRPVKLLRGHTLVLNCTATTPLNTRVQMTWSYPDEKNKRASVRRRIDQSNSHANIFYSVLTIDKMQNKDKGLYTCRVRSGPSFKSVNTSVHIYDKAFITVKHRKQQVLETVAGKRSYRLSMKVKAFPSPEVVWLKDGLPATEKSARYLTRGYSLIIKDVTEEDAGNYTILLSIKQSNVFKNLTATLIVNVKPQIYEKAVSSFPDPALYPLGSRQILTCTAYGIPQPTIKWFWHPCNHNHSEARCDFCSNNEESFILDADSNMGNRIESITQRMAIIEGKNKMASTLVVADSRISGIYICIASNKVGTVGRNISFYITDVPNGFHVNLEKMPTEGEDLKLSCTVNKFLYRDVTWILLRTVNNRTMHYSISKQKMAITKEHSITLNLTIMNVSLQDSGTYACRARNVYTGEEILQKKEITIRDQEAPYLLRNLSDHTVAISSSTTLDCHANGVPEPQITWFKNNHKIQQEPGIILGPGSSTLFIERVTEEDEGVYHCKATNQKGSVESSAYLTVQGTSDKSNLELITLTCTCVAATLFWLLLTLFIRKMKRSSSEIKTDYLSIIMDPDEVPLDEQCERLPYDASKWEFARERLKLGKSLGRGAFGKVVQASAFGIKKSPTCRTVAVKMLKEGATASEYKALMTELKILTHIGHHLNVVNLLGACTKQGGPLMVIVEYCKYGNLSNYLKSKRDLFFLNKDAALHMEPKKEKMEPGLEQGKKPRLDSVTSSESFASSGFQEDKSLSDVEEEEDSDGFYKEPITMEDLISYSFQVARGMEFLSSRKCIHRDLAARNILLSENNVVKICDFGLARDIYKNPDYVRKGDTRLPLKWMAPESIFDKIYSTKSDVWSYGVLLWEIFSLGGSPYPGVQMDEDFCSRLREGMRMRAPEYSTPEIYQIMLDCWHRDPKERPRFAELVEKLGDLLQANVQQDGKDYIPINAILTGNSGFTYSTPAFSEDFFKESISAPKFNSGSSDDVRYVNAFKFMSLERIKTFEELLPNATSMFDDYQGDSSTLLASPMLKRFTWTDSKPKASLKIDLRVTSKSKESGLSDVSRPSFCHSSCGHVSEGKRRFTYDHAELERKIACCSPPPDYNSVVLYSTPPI

Sequence of PDGFR-β (P09619 33-1106): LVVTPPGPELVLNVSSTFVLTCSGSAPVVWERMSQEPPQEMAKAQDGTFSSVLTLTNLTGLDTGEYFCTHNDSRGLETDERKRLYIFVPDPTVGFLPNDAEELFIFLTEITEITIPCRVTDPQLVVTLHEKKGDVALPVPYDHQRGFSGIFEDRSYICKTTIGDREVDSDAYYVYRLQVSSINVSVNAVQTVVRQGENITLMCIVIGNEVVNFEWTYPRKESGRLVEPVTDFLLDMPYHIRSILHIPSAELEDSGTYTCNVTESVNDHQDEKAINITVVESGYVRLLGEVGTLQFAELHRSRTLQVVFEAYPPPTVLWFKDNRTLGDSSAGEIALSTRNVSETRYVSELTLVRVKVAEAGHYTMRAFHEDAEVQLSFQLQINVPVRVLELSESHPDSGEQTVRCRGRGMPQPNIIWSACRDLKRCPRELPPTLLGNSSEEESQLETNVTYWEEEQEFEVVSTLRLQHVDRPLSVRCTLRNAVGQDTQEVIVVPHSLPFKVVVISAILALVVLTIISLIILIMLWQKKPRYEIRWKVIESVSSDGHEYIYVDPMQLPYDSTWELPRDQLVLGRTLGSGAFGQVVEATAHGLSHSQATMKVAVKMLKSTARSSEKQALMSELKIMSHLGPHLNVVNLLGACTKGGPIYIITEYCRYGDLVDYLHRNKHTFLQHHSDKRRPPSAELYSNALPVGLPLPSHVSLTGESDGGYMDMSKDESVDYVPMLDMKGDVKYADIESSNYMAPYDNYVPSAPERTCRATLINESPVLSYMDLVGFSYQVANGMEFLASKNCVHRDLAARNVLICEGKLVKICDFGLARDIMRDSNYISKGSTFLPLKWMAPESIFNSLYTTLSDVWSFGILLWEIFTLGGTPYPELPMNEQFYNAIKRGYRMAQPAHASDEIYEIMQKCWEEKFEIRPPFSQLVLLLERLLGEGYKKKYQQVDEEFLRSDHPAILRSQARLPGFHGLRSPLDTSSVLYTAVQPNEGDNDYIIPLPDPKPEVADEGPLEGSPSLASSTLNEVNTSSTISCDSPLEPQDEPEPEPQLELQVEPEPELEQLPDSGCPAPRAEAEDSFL

Row | SMILES | PDGFR-β inhibition, result in words (PDGFR-β) | VEGFR-1 inhibition, result in words (VEGFR-1)
1 | C#Cc1cccc(Nc2ncnc3[nH]c(CCc4ccccc4)cc23)c1 [Compound 20] | inactive | 
2 | FC(F)(F)c1cccc(Nc2ncnc3[nH]c(CCc4ccccc4)cc23)c1 [Compound 21] | inactive | inactive
3 | Fc1cc(Cl)ccc1Nc1ncnc2[nH]c(CCc3ccccc3)cc12 [Compound 24] | inactive | inactive

Second part, the compound after the results:

Row | PDGFR-β inhibition, result in words (PDGFR-β) | VEGFR-1 inhibition, result in words (VEGFR-1) | SMILES
4 |  | inactive | Fc1ccc(Nc2ncnc3[nH]c(CCc4ccccc4)cc23)cc1Br [Compound 22]
5 | inactive |  | Fc1ccc(Nc2ncnc3[nH]c(CCc4ccccc4)cc23)cc1C(F)(F)F [Compound 23]
